Assay results from patent publication US7427627B2, “N-(4-(4-methylthiazol-5-yl) pyrimidin-2-yl)-N-phenylamines as antiproliferative compounds” (Cyclacel Limited, priority 2001, dated 2008).
pIC50: −log10 of the molar value. Like-named read-outs stand apart in the source and are kept apart here.

How the values were obtained:
[1] = system: HL60; assay: 72-h MTT assay, HL60; type: cell-based; conditions: Homo sapiens, HL-60, 72 h, read-out: 72-h MTT IC50 HL60; Table 3; Promyelocytic leukaemia
Procedure: (§1) The compounds from the examples above were subjected to a standard cellular proliferation assay using human tumour cell lines obtained from the ATCC (American Type Culture Collection, 10801 University Boulevard, Manessas, Va. 20110-2209, USA). Standard 72-h MTT (thiazolyl blue; 3-[4,5-dimethylthiazol-2-yl]-2,5-diphenyltetrazolium bromide) assays were performed (Haselsberger, K.; Peterson, D. C.; Thomas, D. G.; Darling, J. L. Anti Cancer Drugs 1996, 7, 331-8; Loveland, B. E.; Johns, T. G.; Mackay, I. R.; Vaillant, F.; Wang, Z. X.; Hertzog, P. J. Biochemistry International 1992, 27, 501-10). In short: cells were seeded into 96-well plates according to doubling time and incubated overnight at 37° C. Test compounds were made up in DMSO and a 1/3 dilution series prepared in 100 μL cell media, added to cells (in triplicates) and incubated for 72 ho at 37° C. MTT was made up as a stock of 5 mg/mL in cell media and filter-sterilised. Media was removed from cells followed by a wash with 200 μL PBS. MTT solution was then added at 20 μL per well and incubated in the dark at 37° C. for 4 h. MTT solution was removed and cells again washed with 200 μL PBS. MTT dye was solubilised with 200 μL per well of DMSO with agitation.

[2] = system: Messa-Dx5; assay: 72-h MTT assay, Messa-Dx5; type: cell-based; conditions: Homo sapiens, MES-SA/Dx5, 72 h, read-out: 72-h MTT IC50 Messa-Dx5; Table 3; Uterine
Procedure: as §1

[3] = system: tumour cells; assay: 72-h MTT assay, mean over tumour cell lines; type: cell-based; conditions: Homo sapiens, Table 3
Procedure: as §1

[4] = system: DU-145; assay: 72-h MTT assay, DU-145; type: cell-based; conditions: Homo sapiens, DU-145, 72 h, read-out: 72-h MTT IC50 DU-145; Table 3; Prostate
Procedure: as §1

[5] = system: Hela; assay: 72-h MTT assay, Hela; type: cell-based; conditions: Homo sapiens, read-out: 72-h MTT IC50 Hela, Table 3, Cervix
Procedure: as §1

[6] = system: SK-N-MC; assay: 72-h MTT assay, SK-N-MC; type: cell-based; conditions: Homo sapiens, read-out: 72-h MTT IC50 SK-N-MC, Table 3, Neuroblastoma
Procedure: as §1

[7] = system: Hacat; assay: 72-h MTT assay, Hacat; type: cell-based; conditions: Homo sapiens, read-out: 72-h MTT IC50 Hacat, Table 3, Skin keratinocytes
Procedure: as §1

[8] = system: CCRF-CEM; assay: 72-h MTT assay, CCRF-CEM; type: cell-based; conditions: Homo sapiens, read-out: 72-h MTT IC50 CCRF-CEM, Table 3, Leukaemia
Procedure: as §1

[9] = system: IMR-90; assay: 72-h MTT assay, IMR-90; type: cell-based; conditions: Homo sapiens, IMR-90, 72 h, read-out: 72-h MTT IC50 IMR-90; Table 3; Foetal lung fibroblast (non-transformed)
Procedure: as §1

[10] = system: Lovo; assay: 72-h MTT assay, Lovo; type: cell-based; conditions: Homo sapiens, read-out: 72-h MTT IC50 Lovo, Table 3, Colon
Procedure: as §1

[11] = system: HCT-116; assay: 72-h MTT assay, HCT-116; type: cell-based; conditions: Homo sapiens, HCT-116, 72 h, read-out: 72-h MTT IC50 HCT-116; Table 3; Colon
Procedure: as §1

[12] = target: CDK4/cyclin D1 (Homo sapiens, UniProt P11802); assay: Kinase assay CDK4/cyclin D1;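 also: Enzyme: His6-tagged recombinant human CDK4 produced in baculovirus-infected Sf9 insect cells and purified by metal-chelate chromatography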
[13] = system: K562; assay: 72-h MTT assay, K562; type: cell-based; conditions: Homo sapiens, K562, 72 h, read-out: 72-h MTT IC50 K562; Table 3; Chronic myelogenous leukaemia
Procedure: as §1

[14] = target: T1, CDK2/cyclin E (Homo sapiens, UniProt P24941); assay: Kinase assay CDK2/cyclin E; type: biochemical; conditions: Table 1; read-out: Kinase inhibition, IC50 (μM) CDK2/E
T1 construct: His6

[15] = system: A549; assay: 72-h MTT cytotoxicity assay, A549; type: cell-based, human; conditions: Homo sapiens; for IC50: A549, read-out: 72-h MTT in vitro IC50 (μM) A549, Table 1, 72 h
Procedure: In short: cells were seeded into 96-well plates according to doubling time and incubated overnight at 37° C. Test compounds were made up in DMSO and a 1/3 dilution series prepared in 100 μL cell media, added to cells (in triplicates) and incubated for 72 ho at 37° C. MTT was made up as a stock of 5 mg/mL in cell media and filter-sterilised. Media was removed from cells followed by a wash with 200 μL PBS. MTT solution was then added at 20 μL per well and incubated in the dark at 37° C. for 4 h. MTT solution was removed and cells again washed with 200 μL PBS. MTT dye was solubilised with 200 μL per well of DMSO with agitation.

[16] = system: Hs27; assay: 72-h MTT assay, Hs27; type: cell-based; conditions: Homo sapiens, HS27, 72 h, read-out: 72-h MTT IC50 Hs27; Table 3; Foreskin fibroblast (non-transformed)
Procedure: as §1

[17] = system: SKUT-1; assay: 72-h MTT assay, SKUT-1; type: cell-based; conditions: Homo sapiens, SK-UT-1, 72 h, read-out: 72-h MTT IC50 SKUT-1; Table 3; Leiomyosarcoma
Procedure: as §1

[18] = system: AGS; assay: 72-h MTT assay, AGS; type: cell-based; conditions: Homo sapiens, read-out: 72-h MTT IC50 AGS, Table 3, Gastric adenocarcinoma
Procedure: as §1

[19] = system: WI38; assay: 72-h MTT assay, WI38; type: cell-based; conditions: Homo sapiens, WI-38, 72 h, read-out: 72-h MTT IC50 WI38; Table 3; Foetal lung (non-transformed)
Procedure: as §1

[20] = system: H1299; assay: 72-h MTT assay, H1299; type: cell-based; conditions: Homo sapiens, NCI-H1299, 72 h, read-out: 72-h MTT IC50 H1299; Table 3; Lung
Procedure: as §1

[21] = system: HT29; assay: 72-h MTT cytotoxicity assay, HT29; type: cell-based; conditions: Homo sapiens; for IC50: HT-29, read-out: 72-h MTT in vitro IC50 (μM) HT29, Table 1, 72 h
Procedure: as §1

[22] = system: Saos-2; assay: 72-h MTT cytotoxicity assay, Saos-2; type: cell-based; conditions: Homo sapiens; for IC50: SAOS-2, read-out: 72-h MTT in vitro IC50 (μM) Saos-2, Table 1, 72 h
Procedure: as §1

[23] = system: SKUT-1B; assay: 72-h MTT assay, SKUT-1B; type: cell-based; conditions: Homo sapiens, Skut1B, read-out: 72-h MTT IC50 SKUT-1B, Table 3, Leiomyosarcoma
Procedure: as §1

[24] = system: nci-H460; assay: 72-h MTT assay, nci-H460; type: cell-based; conditions: Homo sapiens, NCI-H460, 72 h, read-out: 72-h MTT IC50 nci-H460; Table 3; Lung
Procedure: as §1

[25] = system: Messa; assay: 72-h MTT assay, Messa; type: cell-based; conditions: Homo sapiens, MES-SA, read-out: 72-h MTT IC50 Messa, Table 3, Uterine
Procedure: as §1

[26] = target: stress-activated protein kinase 2a (Homo sapiens, UniProt Q16539); assay: Kinase specificity assay SAPK2a; type: biochemical; conditions: Table 2
[27] = target: protein kinase B (Homo sapiens, UniProt P31749); assay: Kinase specificity assay Akt/PKB; type: biochemical; conditions: Table 2
[28] = target: calmodulin-dependent kinase II; conditions: read-out: Kinase specificity IC50 Cam-KII; Table 2
[29] = target: Ableson tyrosine kinase (Homo sapiens, UniProt P00519); assay: Kinase specificity assay Abl; type: biochemical; conditions: Table 2
[30] = target: glycogen synthase kinase 3β (Homo sapiens, UniProt P49841); assay: Kinase specificity assay GSK3β; type: biochemical; conditions: Table 2
[31] = target: polo-like kinase 1 (Homo sapiens, UniProt P53350); assay: Kinase specificity assay Plk1; type: biochemical; conditions: Table 2
[32] = target: extracellular-signal-regulated kinase 2 (Homo sapiens, UniProt P28482); assay: Kinase specificity assay ERK-2; type: biochemical; conditions: Table 2
[33] = target: p70 ribosomal protein S6 kinase (Homo sapiens, UniProt P23443); assay: Kinase specificity assay p70-S6K; type: biochemical; conditions: Table 2
[34] = target: CDK7-cyclin H-MAT 1 complex (Homo sapiens, UniProt P50613); assay: Kinase specificity assay CDK7/H; type: biochemical; conditions: Table 2
[35] = target: T2, protein kinase C α (Homo sapiens, UniProt P17252); assay: Kinase specificity assay PKCα; type: biochemical; conditions: Table 2
T2 construct: His6
Procedure: PKCα kinase activity may be measured by the incorporation of radio-labeled phosphate in Histone 3, as described. The reaction mixture (total volume 65 μl) consist of 50 mM Tris-HCl, 1 mM Calcium acetate, 3 mM DTT, 0.03 mg/ml Phosphatidylserine, 2.4 μg/ml PMA, 0.04% NP40, 12 mM Mg/Cl, purified PKCα-100 ng, Histone 3, 0.2 mg/ml, 100 μM ATP, 0.2 μCi [γ-^32P]-ATP. The reaction is carried over 15 min at 37° C. in microplate shaker and is stopped by adding 10 μl 75 mM orthophosphoric acid and placing the plate on ice. 50 μl of the reaction mixture is transferred onto P81 filterplate and after washing off the free radioactive phosphate (3 times with 200 μl 75 mM orthophosphoric acid per well) 50 μl of scintillation liquid (Microscint 40) were added to each well and the radioactivity is measured on Scintillation counter (Topcount, HP).

Sequence of CDK4/cyclin D1 (P11802 whole entry): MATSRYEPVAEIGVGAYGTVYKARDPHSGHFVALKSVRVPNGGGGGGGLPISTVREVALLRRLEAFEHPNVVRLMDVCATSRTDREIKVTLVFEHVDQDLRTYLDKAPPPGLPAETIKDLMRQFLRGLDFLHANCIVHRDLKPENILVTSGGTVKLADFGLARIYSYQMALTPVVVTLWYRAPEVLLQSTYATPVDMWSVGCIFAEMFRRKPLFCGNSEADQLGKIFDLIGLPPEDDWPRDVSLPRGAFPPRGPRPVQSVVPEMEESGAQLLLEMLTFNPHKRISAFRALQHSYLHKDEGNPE
Sequence of CDK4/cyclin D1 (P24385 whole entry partner): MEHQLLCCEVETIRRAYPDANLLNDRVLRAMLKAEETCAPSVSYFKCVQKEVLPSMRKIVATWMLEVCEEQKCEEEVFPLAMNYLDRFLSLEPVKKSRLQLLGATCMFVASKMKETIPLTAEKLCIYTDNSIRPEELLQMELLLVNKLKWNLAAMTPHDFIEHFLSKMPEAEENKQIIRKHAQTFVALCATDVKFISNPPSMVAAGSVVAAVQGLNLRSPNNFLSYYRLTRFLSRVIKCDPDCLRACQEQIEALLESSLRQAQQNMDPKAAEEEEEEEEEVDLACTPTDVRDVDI
Sequence of polo-like kinase 1 (P53350 whole entry): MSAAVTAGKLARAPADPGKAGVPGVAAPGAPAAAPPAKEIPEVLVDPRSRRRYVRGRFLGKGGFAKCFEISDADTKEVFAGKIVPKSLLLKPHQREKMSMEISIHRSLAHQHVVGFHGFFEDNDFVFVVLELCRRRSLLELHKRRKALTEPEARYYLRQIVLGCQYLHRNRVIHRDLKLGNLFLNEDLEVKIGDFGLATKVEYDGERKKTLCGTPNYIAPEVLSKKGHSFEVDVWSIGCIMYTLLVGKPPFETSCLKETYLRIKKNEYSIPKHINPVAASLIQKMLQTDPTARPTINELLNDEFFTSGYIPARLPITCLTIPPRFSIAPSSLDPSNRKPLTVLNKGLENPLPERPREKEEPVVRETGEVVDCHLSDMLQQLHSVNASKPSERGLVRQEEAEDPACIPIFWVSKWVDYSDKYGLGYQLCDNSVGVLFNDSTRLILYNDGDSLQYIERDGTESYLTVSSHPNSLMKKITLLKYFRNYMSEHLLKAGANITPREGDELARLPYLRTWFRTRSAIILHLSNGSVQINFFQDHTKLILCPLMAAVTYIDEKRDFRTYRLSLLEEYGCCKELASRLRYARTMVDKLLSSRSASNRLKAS
Sequence of p70 ribosomal protein S6 kinase (P23443 24-525): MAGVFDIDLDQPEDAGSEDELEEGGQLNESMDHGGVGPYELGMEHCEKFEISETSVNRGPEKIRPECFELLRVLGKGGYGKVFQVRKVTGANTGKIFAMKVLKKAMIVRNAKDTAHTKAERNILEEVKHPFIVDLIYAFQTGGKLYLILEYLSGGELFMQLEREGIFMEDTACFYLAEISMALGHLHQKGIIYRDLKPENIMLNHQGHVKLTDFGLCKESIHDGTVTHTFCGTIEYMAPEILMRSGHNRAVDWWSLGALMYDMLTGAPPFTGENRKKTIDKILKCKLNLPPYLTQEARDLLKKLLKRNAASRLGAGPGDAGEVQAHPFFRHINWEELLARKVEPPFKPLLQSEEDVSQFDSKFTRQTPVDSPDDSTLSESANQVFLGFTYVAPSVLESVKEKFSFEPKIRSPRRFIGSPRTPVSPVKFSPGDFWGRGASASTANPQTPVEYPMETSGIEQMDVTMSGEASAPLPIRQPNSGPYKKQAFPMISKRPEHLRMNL
Sequence of stress-activated protein kinase 2a (Q16539 whole entry): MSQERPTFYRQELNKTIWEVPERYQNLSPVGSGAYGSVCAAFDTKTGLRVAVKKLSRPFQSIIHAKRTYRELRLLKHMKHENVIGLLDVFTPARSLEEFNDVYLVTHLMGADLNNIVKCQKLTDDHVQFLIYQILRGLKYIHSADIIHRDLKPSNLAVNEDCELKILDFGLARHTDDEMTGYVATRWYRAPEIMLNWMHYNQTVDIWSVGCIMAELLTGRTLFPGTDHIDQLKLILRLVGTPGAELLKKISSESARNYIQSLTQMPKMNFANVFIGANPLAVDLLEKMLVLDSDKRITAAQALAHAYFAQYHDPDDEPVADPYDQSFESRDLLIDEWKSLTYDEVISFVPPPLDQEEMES
Sequence of extracellular-signal-regulated kinase 2 (P28482 whole entry): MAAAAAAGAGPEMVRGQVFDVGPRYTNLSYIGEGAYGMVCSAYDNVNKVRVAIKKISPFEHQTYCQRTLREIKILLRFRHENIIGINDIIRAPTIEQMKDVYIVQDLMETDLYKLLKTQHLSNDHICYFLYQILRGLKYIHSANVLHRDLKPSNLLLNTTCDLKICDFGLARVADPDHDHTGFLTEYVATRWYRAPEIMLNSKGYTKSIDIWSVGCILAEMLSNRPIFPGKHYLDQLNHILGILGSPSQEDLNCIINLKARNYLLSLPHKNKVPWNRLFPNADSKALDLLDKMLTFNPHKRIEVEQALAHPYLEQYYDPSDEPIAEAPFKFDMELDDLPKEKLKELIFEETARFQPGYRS
Sequence of CDK7-cyclin H-MAT 1 complex (P50613 whole entry): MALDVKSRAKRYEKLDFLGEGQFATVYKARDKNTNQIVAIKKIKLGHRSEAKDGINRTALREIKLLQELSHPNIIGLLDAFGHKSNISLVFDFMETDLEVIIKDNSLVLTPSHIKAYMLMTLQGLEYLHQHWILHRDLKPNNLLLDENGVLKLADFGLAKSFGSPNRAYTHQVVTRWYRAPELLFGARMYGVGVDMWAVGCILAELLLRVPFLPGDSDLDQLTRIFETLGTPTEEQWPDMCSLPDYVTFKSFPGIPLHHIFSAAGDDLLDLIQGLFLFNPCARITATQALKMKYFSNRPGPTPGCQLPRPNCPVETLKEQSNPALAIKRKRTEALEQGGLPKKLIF
Sequence of CDK7-cyclin H-MAT 1 complex (P51946 whole entry partner): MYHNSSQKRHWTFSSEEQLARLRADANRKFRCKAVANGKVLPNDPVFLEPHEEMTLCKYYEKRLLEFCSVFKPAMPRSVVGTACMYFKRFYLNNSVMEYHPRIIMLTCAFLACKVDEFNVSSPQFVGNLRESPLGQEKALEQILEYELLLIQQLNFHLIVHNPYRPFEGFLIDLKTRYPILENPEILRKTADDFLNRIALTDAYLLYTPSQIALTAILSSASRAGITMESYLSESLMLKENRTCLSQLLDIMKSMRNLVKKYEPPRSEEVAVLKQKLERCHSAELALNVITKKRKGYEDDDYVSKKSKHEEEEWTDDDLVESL
Sequence of CDK7-cyclin H-MAT 1 complex (P51948 whole entry partner): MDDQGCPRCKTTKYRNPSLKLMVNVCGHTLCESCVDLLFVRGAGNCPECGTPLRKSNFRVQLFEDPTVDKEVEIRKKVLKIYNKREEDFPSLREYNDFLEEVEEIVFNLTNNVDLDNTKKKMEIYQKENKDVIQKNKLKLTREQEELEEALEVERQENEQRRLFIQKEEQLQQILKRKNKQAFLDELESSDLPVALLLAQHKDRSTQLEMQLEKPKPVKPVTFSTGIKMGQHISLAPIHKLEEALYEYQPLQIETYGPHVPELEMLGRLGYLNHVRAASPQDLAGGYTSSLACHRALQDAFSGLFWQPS
Sequence of protein kinase B (P31749 whole entry): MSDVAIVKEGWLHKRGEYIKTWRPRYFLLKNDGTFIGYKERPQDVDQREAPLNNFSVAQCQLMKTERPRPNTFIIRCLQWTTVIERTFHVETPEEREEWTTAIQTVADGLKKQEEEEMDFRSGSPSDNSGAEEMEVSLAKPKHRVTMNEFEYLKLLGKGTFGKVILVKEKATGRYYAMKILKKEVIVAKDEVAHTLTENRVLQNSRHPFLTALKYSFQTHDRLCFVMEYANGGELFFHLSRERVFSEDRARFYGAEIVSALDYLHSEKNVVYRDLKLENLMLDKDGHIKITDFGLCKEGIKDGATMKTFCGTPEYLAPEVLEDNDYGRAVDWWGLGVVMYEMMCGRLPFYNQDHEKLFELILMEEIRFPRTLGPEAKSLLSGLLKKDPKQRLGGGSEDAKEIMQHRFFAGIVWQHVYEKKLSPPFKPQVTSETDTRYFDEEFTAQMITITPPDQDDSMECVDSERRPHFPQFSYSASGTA

Cc1nc(N)sc1-c1ccnc(Nc2cccc(Br)c2)n1 [Compound 16, [4-(2-Amino-4-methyl-thiazol-5-yl)-pyrimidin-2-yl]-(3-bromo-phenyl)-amine]
pIC50 [1]: 6.37 | pIC50 [2]: 6.23 | pIC50 [3]: 6.17 | pIC50 [4]: 5.76 | pIC50 [5]: 6.25 | pIC50 [6]: 6.38 | pIC50 [7]: 6.30 | pIC50 [8]: 6.30 | pIC50 [9]: < 5.30 | pIC50 [10]: 6.68 | pIC50 [11]: 6.02 | pIC50 [12]: 5.75 | pIC50 [13]: 6.27 | IC50 [14]: 0.09 µM | pIC50 ([15]; A549, 72 h, read-out: 72-h MTT IC50 A549, Table 3, Lung): 5.88 | IC50 [15]: 0.82 µM | pIC50 [16]: < 5.30 | pIC50 [17]: 6.19 | pIC50 [18]: 5.95 | pIC50 [19]: < 5.30 | pIC50 [20]: 5.97 | pIC50 ([21]; HT-29, 72 h, read-out: 72-h MTT IC50 HT29, Table 3, Colon): 6.60 | IC50 [21]: 0.66 µM | pIC50 ([22]; SAOS-2, 72 h, read-out: 72-h MTT IC50 Saos-2, Table 3, Bone osteosarcoma): 6.14 | IC50 [22]: 0.81 µM | pIC50 [23]: 6.52 | pIC50 [24]: 6.55 | pIC50 [25]: 6.23

Cc1nc(C)c(-c2ccnc(Nc3ccc(N(C)C)c(Cl)c3)n2)s1 [Compound 26, 2-[N-(4-N,N-Dimethylamino-3-chlorophenyl)]-4-(2,4-dimethylthiazol-5-yl)-pyrimidineamine]
pIC50 [26]: 4.07 | pIC50 [27]: 5.20 | pIC50 [28]: 4.16 | pIC50 [29]: 5.80 | pIC50 [30]: 5.66 | pIC50 [31]: < 4.00 | pIC50 [32]: 4.70 | IC50 [15]: 0.29 µM | IC50 [21]: 0.15 µM | IC50 [22]: 0.32 µM | pIC50 [33]: 4.49 | pIC50 [34]: 5.32 | pIC50 [35]: 4.62

Cc1ccc(Nc2nccc(-c3sc(=O)n(C)c3C)n2)cc1I [Compound 40, 5-[2-(3-Iodo-4-methyl-phenylamino)-pyrimidin-4-yl]-3,4-dimethyl-3H-thiazol-2-one]
IC50 ([12]; read-out: Kinase inhibition, IC50 (μM) CDK4/D1, Table 1): 3.98 µM | IC50 [14]: 0.7 µM | IC50 [15]: 6.63 µM | IC50 [21]: 7.74 µM | IC50 [22]: 22 µM

Cc1nc(NS(C)(=O)=O)sc1-c1ccnc(Nc2cccc([N+](=O)[O-])c2)n1 [Compound 56, N-{4-Methyl-5-[2-(3-nitro-phenylamino)-pyrimidin-4-yl]-thiazol-2-yl}-methane sulfonamide]
pIC50 [12]: 5.95 | IC50 [14]: 0.01 µM | IC50 [15]: 0.1 µM | IC50 [21]: 0.17 µM | IC50 [22]: 0.16 µM

Cc1nc(NCCO)sc1-c1ccnc(Nc2cccc([N+](=O)[O-])c2)n1 [Compound 58, 2-{4-Methyl-5-[2-(3-nitro-phenylamino)-pyrimidin-4-yl]-thiazol-2-ylamino}-ethanol]
pIC50 [12]: 6.96 | IC50 [14]: 0.004 µM | IC50 [15]: 0.01 µM | IC50 [21]: 0.09 µM | IC50 [22]: 0.06 µM

Cc1nc(NC(=O)CCl)sc1-c1ccnc(Nc2cccc([N+](=O)[O-])c2)n1 [Compound 60, 2-Chloro-N-{4-methyl-5-[2-(3-nitro-phenylamino)-pyrimidin-4-yl]-thiazol-2-yl}-acetamide]
pIC50 [12]: 6.07 | IC50 [14]: 0.07 µM | IC50 [15]: 0.15 µM | IC50 [21]: 0.25 µM | IC50 [22]: 0.21 µM

Cc1nc(NC(=O)CCl)sc1-c1ccnc(Nc2ccc(F)cc2)n1 [Compound 61, 2-Chloro-N-{5-[2-(4-fluoro-phenylamino)-pyrimidin-4-yl]-4-methyl-thiazol-2-yl}-acetamide]
pIC50 [12]: 6.17 | IC50 [14]: 0.23 µM | IC50 [15]: 0.33 µM | IC50 [21]: 0.11 µM | IC50 [22]: 0.3 µM
